Values of other authors as cited in patent US20100255080A1, “Liposomal ALA pharmaceutical and cosmeceutical compositions and methods of treatment” (SESVALIA USA, LLC, priority 2009, published 2010).

Details: printed as the pH near the pka

- pka: about 4
Compound: Cl.NCC(=O)CCC(=O)O [ALA, 5-aminolevulinic acid]
